Tests used:
[1] = tested on: K. pneumoniae ATCC 10031 (SEN) and K. pneumoniae ATCC 700603 (MDR); assay: microbe, parasite or virus in culture; assay type: cell-based, Klebsiella pneumoniae; settings: for MIC of ancestor: ancestor strain; for MIC: Klebsiella pneumoniae, across three biological replicates
Summary of the method: (§1)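 Broth microdilution in cation-adjusted Mueller-Hinton Broth 2 (except SCH79797), 11 to 16-step serial dilutions, inoculum 5 × 10^5 cells per mL. Plates shaken at 37 °C for 18 hours, 2 replicates. MIC taken as lowest concentration giving complete growth inhibition, OD600 < 0.05; relative MIC = MICevolved/MICancestor.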

[2] = tested on: A. baumannii ATCC 17978 (SEN) and A. baumannii ATCC BAA-1605 (MDR); assay: microbe, parasite or virus in culture; assay type: cell-based, Acinetobacter baumannii; settings: for MIC of ancestor: ancestor strain; for MIC: Acinetobacter baumannii, across three biological replicates
Summary of the method: as §1

[3] = tested on: P. aeruginosa ATCC BAA-3107 (SEN) and P. aeruginosa LESB58 (MDR); assay: microbe, parasite or virus in culture; assay type: cell-based, Pseudomonas aeruginosa; settings: for MIC: Pseudomonas aeruginosa, across three biological replicates
Summary of the method: as §1

[4] = tested on: K. pneumoniae ATCC 10031 (SEN) and K. pneumoniae ATCC 700603 (MDR); assay: Adaptive laboratory evolution (ALE), relative MIC of evolved lines; assay type: cell-based, Klebsiella pneumoniae
Source text: Using the same set of bacterial strains, we initiated adaptive laboratory evolution with the aim to maximize the level of antibiotic resistance in the populations achieved during a longer, but fixed time period.
An established protocol for adaptive laboratory evolution[46],[73] was followed to propagate populations with the highest resistance levels. Starting with an antibiotic concentration that caused approximately 50% growth inhibition, ten parallel populations for each antibiotic-ancestor strain combination were grown for 72 hours at 37 °C with continuous shaking (300 RPM). MHB broth medium was used unless stated otherwise. After each incubation, 20 µl of each culture was transferred to four new wells containing fresh medium with increasing antibiotic concentrations (0.5×, 1×, 1.5×, and 2.5× the previous concentration) in a chessboard layout to monitor potential cross-contamination. Growth was monitored by measuring OD600 using a Biotek Synergy 2 microplate reader, and only populations grown in the highest drug concentration with an OD600 > 0.2 were transferred further.
A robotic liquid handling system was used to automatically prepare a 11 to 16-step serial dilution in 384-well microtiter plates (Greiner). A final concentration of 5 × 10^5 bacterial cells per mL were inoculated into each well containing 60 µL MHB medium. Bacterial cultures were incubated at 37 °C with continuous shaking (Infors shaker, 900 rpm with 3 mm throw) for 18 hours (2 replicates from each). Cell growth was monitored by measuring the optical density (OD600 values, using Biotek Synergy microplate reader). MIC was defined as the antibiotic concentration of complete growth inhibition (i.e., OD600 < 0.05). Relative MIC was calculated as follows:1 relativeMIC=MICevolved/MICancestor […]
Supplementary Figure 4. Resistance levels following adaptive laboratory evolution across bacterial strains. The level of resistance was measured as the fold change in relative MIC between evolved and ancestral strains after ~60 days of adaptive laboratory evolution. Data are grouped by bacterial strain (A. baumannii (AB), E. coli (EC), K. pneumoniae (KP), and P. aeruginosa (PA)) and categorized as either multidrug-resistant (MDR) or sensitive (SEN). Each data point represents a laboratory evolved line, and boxplots show the median, first and third quartiles, with whiskers indicating the 5th and 95th percentiles.
Statistical analysis was performed using two-sided Dunn’s post-hoc test with Benjamini-Hochberg correction for multiple comparisons (****/ ***/ **/ * indicates p < 0.0001/ 0.001/ 0.01/ 0.05). For detailed information on antibiotic and bacterial species, see Supplementary Table 1. For mode of action groups, refer to Table 1. Source data are provided as a Source Data file.

[5] = Klebsiella pneumoniae ATCC 10031 (KP-SEN)
[6] = Klebsiella pneumoniae ATCC 10031 (KP-SEN), sheet fig 2a
[7] = Klebsiella pneumoniae ATCC 700603 (KP-MDR)
[8] = Acinetobacter baumannii ATCC 17978 (AB-SEN)
[9] = Acinetobacter baumannii ATCC 17978 (AB-SEN), sheet fig 2a
[10] = Acinetobacter baumannii ATCC BAA-1605 (AB-MDR)
[11] = P. aeruginosa ATCC BAA 3107 (PA-SEN), ancestor strain, sheet fig 2a
[12] = ATCCBAA3107, Pseudomonas aeruginosa ATCC BAA-3107 (PA-SEN)
[13] = ATCCBAA3107, Pseudomonas aeruginosa LESB 58 (PA-MDR)
[14] = Klebsiella pneumoniae ATCC 10031 (KP-SEN), evolved line 1
[15] = Klebsiella pneumoniae ATCC 10031 (KP-SEN), evolved line 3
[16] = Klebsiella pneumoniae ATCC 10031 (KP-SEN), evolved line 4
[17] = Klebsiella pneumoniae ATCC 10031 (KP-SEN), evolved line 7
[18] = Klebsiella pneumoniae ATCC 10031 (KP-SEN), evolved line 9
[19] = Klebsiella pneumoniae ATCC 10031 (KP-SEN), evolved line 10

C[C@H]1c2cccc(O)c2C(=O)C2=C(O)[C@]3(O)C(=O)C(C(N)=O)=C(O)[C@@H](N(C)C)[C@@H]3[C@@H](O)[C@@H]21 [Doxycycline]
MIC of ancestor [1, 5]: 0.25 µg/mL
MIC of ancestor [1, 6]: 0.25 µg/mL
MIC [1, 5]: 0.25 µg/mL
MIC [1, 7]: 32 µg/mL
MIC of ancestor [2, 8]: 0.25 µg/mL
MIC of ancestor [2, 9]: 0.25 µg/mL
MIC [2, 8]: 0.25 µg/mL
MIC [2, 10]: 8 µg/mL
MIC of ancestor [3, 11]: 4 µg/mL
MIC of ancestor ([3]; Pseudomonas aeruginosa ATCC BAA 3107 (PA-SEN), ancestor strain): 4 µg/mL
MIC [3, 12]: 4 µg/mL
MIC [3, 13]: 32 µg/mL
Relative MIC ([4]; KP-SEN (ATCC 10031), evolved line 1, MIC of evolved line / MIC of ancestor): 32
Relative MIC ([4]; KP-SEN (ATCC 10031), evolved line 2, MIC of evolved line / MIC of ancestor): 64
Relative MIC ([4]; KP-SEN (ATCC 10031), evolved line 3, MIC of evolved line / MIC of ancestor): 32
Relative MIC ([4]; KP-SEN (ATCC 10031), evolved line 4, MIC of evolved line / MIC of ancestor): 256
Relative MIC ([4]; KP-SEN (ATCC 10031), evolved line 5, MIC of evolved line / MIC of ancestor): 256
Relative MIC ([4]; KP-SEN (ATCC 10031), evolved line 6, MIC of evolved line / MIC of ancestor): 256
Relative MIC ([4]; KP-SEN (ATCC 10031), evolved line 7, MIC of evolved line / MIC of ancestor): 256
Relative MIC ([4]; KP-SEN (ATCC 10031), evolved line 8, MIC of evolved line / MIC of ancestor): 256
Relative MIC ([4]; KP-SEN (ATCC 10031), evolved line 9, MIC of evolved line / MIC of ancestor): 256
Relative MIC ([4]; KP-SEN (ATCC 10031), evolved line 10, MIC of evolved line / MIC of ancestor): 128
Relative MIC (log10) ([4]; KP-SEN (Klebsiella pneumoniae ATCC 10031), evolved line 4 adapted to the named antibiotic): 2.408
Relative MIC (log10) ([4]; KP-SEN (Klebsiella pneumoniae ATCC 10031), evolved line 5 adapted to the named antibiotic): 2.408
Relative MIC (log10) ([4]; KP-SEN (Klebsiella pneumoniae ATCC 10031), evolved line 6 adapted to the named antibiotic): 2.408
Relative MIC (log10) ([4]; KP-SEN (Klebsiella pneumoniae ATCC 10031), evolved line 8 adapted to the named antibiotic): 2.408
Relative MIC (log10) ([4]; KP-SEN (Klebsiella pneumoniae ATCC 10031), evolved line 9 adapted to the named antibiotic): 2.408
Relative MIC [4, 14]: 32
Relative MIC ([4]; Klebsiella pneumoniae ATCC 10031 (KP-SEN), evolved line 2): 64
Relative MIC [4, 15]: 32
Relative MIC [4, 16]: 256
Relative MIC ([4]; Klebsiella pneumoniae ATCC 10031 (KP-SEN), evolved line 5): 256
Relative MIC ([4]; Klebsiella pneumoniae ATCC 10031 (KP-SEN), evolved line 6): 256
Relative MIC [4, 17]: 256
Relative MIC ([4]; Klebsiella pneumoniae ATCC 10031 (KP-SEN), evolved line 8): 256
Relative MIC [4, 18]: 256
Relative MIC [4, 19]: 128

CN(C)[C@@H]1C(O)=C(C(N)=O)C(=O)[C@@]2(O)C(O)=C3C(=O)c4c(O)c(NC(=O)CN5CCCC5)cc(F)c4C[C@H]3C[C@@H]12 [Eravacycline]
MIC of ancestor ([1]; K. pneumoniae ATCC 10031 (KP-SEN)): 0.0312 µg/mL
MIC of ancestor [1, 6]: 0.0312 µg/mL
MIC of ancestor [1, 7]: 4 µg/mL
MIC of ancestor ([1]; Klebsiella pneumoniae ATCC 700603 (KP-MDR), sheet fig 2a): 4 µg/mL
MIC [1, 5]: 0.0312 µg/mL
MIC [1, 7]: 4 µg/mL
MIC of ancestor [2, 8]: 0.0625 µg/mL
MIC of ancestor [2, 9]: 0.0625 µg/mL
MIC of ancestor ([2]; Acinetobacter baumannii ATCC BAA 1605 (AB-MDR)): 2 µg/mL
MIC of ancestor ([2]; Acinetobacter baumannii ATCC BAA 1605 (AB-MDR), sheet fig 2a): 2 µg/mL
MIC [2, 8]: 0.0625 µg/mL
MIC [2, 10]: 2 µg/mL
MIC of ancestor [3, 11]: 4 µg/mL
MIC of ancestor ([3]; PA-SEN, Pseudomonas aeruginosa ATCC BAA 3107, ancestor strain): 4 µg/mL
MIC [3, 12]: 4 µg/mL
MIC [3, 13]: 32 µg/mL
Relative MIC ([4]; KP-MDR (ATCC 700603), evolved line 1, MIC of evolved line / MIC of ancestor): 8
Relative MIC ([4]; KP-MDR (ATCC 700603), evolved line 2, MIC of evolved line / MIC of ancestor): 8
Relative MIC ([4]; KP-MDR (ATCC 700603), evolved line 3, MIC of evolved line / MIC of ancestor): 16
Relative MIC ([4]; KP-MDR (ATCC 700603), evolved line 4, MIC of evolved line / MIC of ancestor): 8
Relative MIC ([4]; KP-MDR (ATCC 700603), evolved line 5, MIC of evolved line / MIC of ancestor): 8
Relative MIC ([4]; KP-MDR (ATCC 700603), evolved line 6, MIC of evolved line / MIC of ancestor): 8
Relative MIC ([4]; KP-MDR (ATCC 700603), evolved line 7, MIC of evolved line / MIC of ancestor): 8
Relative MIC ([4]; KP-MDR (ATCC 700603), evolved line 8, MIC of evolved line / MIC of ancestor): 16
Relative MIC ([4]; KP-MDR (ATCC 700603), evolved line 9, MIC of evolved line / MIC of ancestor): 8
Relative MIC ([4]; KP-MDR (ATCC 700603), evolved line 10, MIC of evolved line / MIC of ancestor): 8
Relative MIC (log10) ([4]; KP-MDR (Klebsiella pneumoniae ATCC 700603), evolved line 1 adapted to the named antibiotic): 0.9031
Relative MIC (log10) ([4]; KP-MDR (Klebsiella pneumoniae ATCC 700603), evolved line 3 adapted to the named antibiotic): 1.204
Relative MIC (log10) ([4]; KP-MDR (Klebsiella pneumoniae ATCC 700603), evolved line 4 adapted to the named antibiotic): 0.9031
Relative MIC (log10) ([4]; KP-MDR (Klebsiella pneumoniae ATCC 700603), evolved line 8 adapted to the named antibiotic): 1.204
Relative MIC (log10) ([4]; KP-MDR (Klebsiella pneumoniae ATCC 700603), evolved line 9 adapted to the named antibiotic): 0.9031
Relative MIC ([4]; KP-SEN (ATCC 10031), evolved line 1, evolved vs ancestor): 512
Relative MIC ([4]; KP-SEN (ATCC 10031), evolved line 3, evolved vs ancestor): 256
Relative MIC ([4]; KP-SEN (ATCC 10031), evolved line 4, evolved vs ancestor): 64
Relative MIC ([4]; KP-SEN (ATCC 10031), evolved line 7, evolved vs ancestor): 64
Relative MIC ([4]; KP-SEN (ATCC 10031), evolved line 9, evolved vs ancestor): 256
Relative MIC ([4]; KP-SEN (ATCC 10031), evolved line 10, evolved vs ancestor): 512
Relative MIC (log10) ([4]; KP-SEN (Klebsiella pneumoniae ATCC 10031), evolved line 1): 2.709 log10
Relative MIC (log10) ([4]; KP-SEN (Klebsiella pneumoniae ATCC 10031), evolved line 3): 2.408 log10
Relative MIC (log10) ([4]; KP-SEN (Klebsiella pneumoniae ATCC 10031), evolved line 9): 2.408 log10
Relative MIC (log10) ([4]; KP-SEN (Klebsiella pneumoniae ATCC 10031), evolved line 10): 2.709 log10
Relative MIC (log10) ([4]; KP-SEN, Klebsiella pneumoniae ATCC 10031, evolved line 7): 1.806 log10
Relative MIC [4, 14]: 512
Relative MIC [4, 15]: 256
Relative MIC [4, 16]: 64
Relative MIC [4, 17]: 64
Relative MIC [4, 18]: 256
Relative MIC [4, 19]: 512
Relative MIC ([4]; Klebsiella pneumoniae ATCC 700603 (KP-MDR), evolved line 1): 8
Relative MIC ([4]; Klebsiella pneumoniae ATCC 700603 (KP-MDR), evolved line 2): 8
Relative MIC ([4]; Klebsiella pneumoniae ATCC 700603 (KP-MDR), evolved line 3): 16
Relative MIC ([4]; Klebsiella pneumoniae ATCC 700603 (KP-MDR), evolved line 4): 8
Relative MIC ([4]; Klebsiella pneumoniae ATCC 700603 (KP-MDR), evolved line 5): 8
Relative MIC ([4]; Klebsiella pneumoniae ATCC 700603 (KP-MDR), evolved line 6): 8
Relative MIC ([4]; Klebsiella pneumoniae ATCC 700603 (KP-MDR), evolved line 7): 8
Relative MIC ([4]; Klebsiella pneumoniae ATCC 700603 (KP-MDR), evolved line 8): 16
Relative MIC ([4]; Klebsiella pneumoniae ATCC 700603 (KP-MDR), evolved line 9): 8
Relative MIC ([4]; Klebsiella pneumoniae ATCC 700603 (KP-MDR), evolved line 10): 8

— PMC11845477, “Exploring the principles behind antibiotics with limited resistance” (Nature Communications, 2025)
